Measured values from patent US11573233B2, “Systems and methods for label-free detection of analytes” (UNIVERSITY OF UTAH RESEARCH FOUNDATION, priority 2015, dated 2023).

Test: second harmonic imaging (SHI) of tetracaine binding to lipid bilayer array
Description: SH is a powerful tool for investigating small-molecule and protein interactions with membranes in a label-free manner. However, a high-throughput analog would be even more advantageous, akin to fluorescence imaging. Towards that end, SHI was implemented to measure the interactions between the local anesthetic tetracaine and a […] lipid bilayer array (MLBA) in a label-free manner allowing the effects of lipid phase and CHO content on tetracaine binding to be examined simultaneously.

Q: For CCCCNc1ccc(C(=O)OCCN(C)C)cc1 [tetracaine], which maximum surface excess (effect of phospholipid unsaturation and cholesterol content) is on record?
A: increases with the degree of unsaturation of the phospholipids and decreases with cholesterol in the lipid bilayers

Q: And the “binding affinity to lipid phases” value (l.c. phase vs solid-gel phase lipids, label-free SHI)?
A: higher binding affinity to l.c. phase lipids than to solid-gel phase lipids
